Assay results taken from patent US20200032249A1, “LABELING, ISOLATION, & ANALYSIS OF RNA FROM RARE CELL POPULATIONS” (priority 2017, published 2020).

System: MDA231 cells expressing CD/UPRT in mouse lungs
Assay: Flura-seq of lung micrometastases, reads aligned to hybrid human-mouse genome
Type: in vivo
Procedure: FIG. 3 a-g. Flura-tagging of mRNA in vivo. FIG. 3a—Schematic diagram of lung colonization xenograft assay used for evaluation of Flura-tagging/Flura-seq. Athymic mice were injected through the tail vein with 50,000 MDA231 cells expressing CD/UPRT and GFP-luciferase. Upon the development of detectable bioluminescent lung metastases (4 weeks), mice were treated with doxycycline to induce CD/UPRT expression and injected with 5-FC. Lungs were harvested, and Flura-tagged mRNAs were immunopurified. FIG. 3b—Comparison of signal-to-noise ratio of Flura-tagging and TU-tagging in vivo. Mice were injected with either 5-FC or TU, the Flura-tagged or TU-tagged mRNAs were purified 12 h post injection, and the relative fold enrichment of representative human housekeeping genes relative to representative murine housekeeping genes (mHPRT1, mLDH1, mPGK1 and mGAPDH), normalized to their corresponding unpurified inputs, were measured by RT-PCR (n=5, ±S.E.). FIG. 3c—Quantification of the number of human cells in the mouse lungs used for Flura-tagging. Half of the mouse lungs used for Flura-tagging in FIG. 3b was dissociated into single cells, and the number of RFP+ cells was quantified using flow cytometry. The total number of MDA231 cells per lung was estimated based on an assumption of 1.5×10^8 cells per mouse lung (20) (n=5). […] RNA reads were aligned to a hybrid genome containing the human and mouse genomes. […]

Nc1nc(=O)[nH]cc1F [5-FC, 5-fluorocytosine]
aligned reads mapped to human genome (mice treated for 4 h): approximately 53% | aligned reads mapped to human genome (mice treated for 12 h): 74%
